The values below come from publication PMC6364133, “Selectivity of Dietary Phenolics for Inhibition of Human Monoamine Oxidases A and B” (BioMed Research International, 2019).

For data set [1], the target named is T1, MAO-A (Homo sapiens, UniProt P21397).
T1 construct: purchased BD Biosciences (San Jose, CA) or Corning Discovery Labware (Woburn, MA)
T1 sequence (P21397 1-527): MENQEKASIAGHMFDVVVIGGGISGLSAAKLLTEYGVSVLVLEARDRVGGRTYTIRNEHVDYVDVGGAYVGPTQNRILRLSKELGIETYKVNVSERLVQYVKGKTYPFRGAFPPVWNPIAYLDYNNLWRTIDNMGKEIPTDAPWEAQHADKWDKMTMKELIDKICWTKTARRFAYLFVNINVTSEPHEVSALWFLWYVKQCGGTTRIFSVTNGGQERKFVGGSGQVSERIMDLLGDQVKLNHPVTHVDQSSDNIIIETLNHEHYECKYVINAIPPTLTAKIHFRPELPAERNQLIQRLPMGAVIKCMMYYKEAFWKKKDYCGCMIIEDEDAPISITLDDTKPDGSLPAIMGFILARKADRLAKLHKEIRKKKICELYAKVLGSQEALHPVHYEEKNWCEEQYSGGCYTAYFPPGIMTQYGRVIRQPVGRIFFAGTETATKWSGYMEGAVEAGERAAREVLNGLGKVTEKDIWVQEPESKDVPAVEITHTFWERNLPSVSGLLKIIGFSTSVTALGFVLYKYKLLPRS
Put plainly: Inhibition mechanism studies (competition, time dependence) with MAO-A. It counts as biochemical. The settings on record: 1 μM, preincubation 0-60 min, then kynuramine 20 μM.

On the set-up of data set [2]: method as in earlier work. The conditions noted are these: cited from earlier work.
Data set [3] addresses T1, MAO-A. Put plainly: MAO-A inhibition, kynuramine to 4-hydroxyquinoline, HPLC-fluorescence. The settings on record: for MAO-A inhibition (Figure 6): 15 µM test compound (clorgyline 1 µM, selegiline 0.5 µM); for MAO-A inhibition (Figure 6) / MAO-A Hill coefficient / IC50: kynuramine 10 µM, 15 min; for inhibition of MAO-A activity in screening: highest expected luminal concentration: curcumin 140, guaiacol 435, isoeugenol 110, pterostilbene 270, resveratrol 94, zingerone 51 µM, p < 0.05 vs control; for MAO-A Hill coefficient / IC50: MAO-A 0.01 mg/mL; for Selectivity Index: ratio of MAO-B IC50/MAO-A IC50. The data set is classed as biochemical.

Data set [4] concerns the target T2, MAO-B (Homo sapiens, UniProt P27338).
T2 construct: purchased BD Biosciences (San Jose, CA) or Corning Discovery Labware (Woburn, MA)
T2 sequence (P27338 1-520): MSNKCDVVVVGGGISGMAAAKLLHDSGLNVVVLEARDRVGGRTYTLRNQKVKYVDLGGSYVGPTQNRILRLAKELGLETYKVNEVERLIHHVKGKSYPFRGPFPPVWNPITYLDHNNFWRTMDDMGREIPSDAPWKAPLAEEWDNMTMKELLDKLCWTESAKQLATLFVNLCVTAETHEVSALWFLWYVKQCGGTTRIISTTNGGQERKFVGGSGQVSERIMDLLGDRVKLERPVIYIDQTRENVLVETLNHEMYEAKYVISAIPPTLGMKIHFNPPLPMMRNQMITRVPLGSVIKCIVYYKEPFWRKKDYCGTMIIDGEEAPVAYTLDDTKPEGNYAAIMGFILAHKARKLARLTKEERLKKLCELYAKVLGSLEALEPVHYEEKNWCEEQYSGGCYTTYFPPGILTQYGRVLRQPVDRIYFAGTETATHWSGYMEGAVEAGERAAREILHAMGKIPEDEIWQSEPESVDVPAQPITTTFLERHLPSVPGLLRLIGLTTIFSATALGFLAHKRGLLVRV
Put plainly: MAO-B inhibition, kynuramine to 4-hydroxyquinoline, HPLC-fluorescence. The data set is classed as biochemical.

The next data set concerns MAO-A in mouse brain. The conditions noted are these: after p.o. administration; cited from earlier work.
For a further data set, the system named is MAO-B in mouse brain. The settings on record: after p.o. administration; cited from earlier work.
The next data set concerns the target MAO-B in rat brain. Set-up: method as in PMID 15120460. The settings on record: cited from earlier work.
Data set [5] deals with MAO-A. The settings on record: cited from earlier work.
For data set [6], the system named is MAO-B. The settings on record: cited from earlier work.
The target in data set [7] is T2, MAO-B. Put plainly: Kynuramine oxidative deamination kinetics (saturation, optimization) with MAO-B. The settings on record: mean ± SEM. The data set is classed as biochemical. Here is the method:
(§1) The optimized incubation time and human recombinant MAO concentration were selected in the linear range from the time-dependent and MAO concentration-dependent studies (Supplemental Data). Briefly, samples were prepared in potassium phosphate buffer (100 mM, pH 7.4) with a final concentration of MAO in the reaction solution of 0.01 mg/mL, incubated at 37°C for 15 min. Saturation of kynuramine metabolism with MAO-A/B was carried out at concentrations of 2, 5, 10, 25, 50, 100, 250, 500 μM. The enzymatic reactions (200μL) were stopped by 2 N NaOH (75 μL) followed with 70% perchloric acid (25 μL). The samples were vortexed and centrifuged for 5 min at 10,000×g. The supernatant was analyzed by HPLC as described above.
(§2) GraphPad Prism 5 was applied to fit a Michaelis-Menten model to the data to obtain the Km values in the saturation experiments. In the screening experiments, significant differences between control and treated group were determined by a one-way ANOVA followed by Dunnett's posttest (p < 0.05). […] The maximum single doses are from published sources. The relevant GI concentration is the lesser of either solubility or the concentration after a single dose.
(§3) Kynuramine (2 to 500 μM) was incubated in 200 μL potassium phosphate buffer (100 mM, pH 7.4) for 15 min with MAO-A or MAO-B (0.01 mg/mL). Michaelis-Menten model was used to fit the data by GraphPad Prism 5. The experiments were conducted 3 times in triplicate. Single representative experiments are shown. […]
(§4) Table S7. Sample Processing Stability for 4-Hydroxyquinoline […]
(§5) B. Optimization of Enzyme Incubations […]
(§6) Kynuramine (10 µM) was incubated with MAO-A (0.01 mg/mL) in 200 µL potassium phosphate buffer (100 mM, pH 7.4) for 10, 20, 30, 40, and 60 min. The formation of 4-hydroxyquinoline was analyzed after the enzymatic reaction. […]

The next data set has as its system human MAO-B. Set-up: method as in PMID 15095350. The settings on record: cited from earlier work.
For data set [8], the target named is T1, MAO-A. In words: Kynuramine oxidative deamination kinetics (saturation, optimization) with MAO-A. The data set is classed as biochemical. The settings on record: mean ± SEM. The procedure:
as §1, §2, §3, §4, §5, §6

The test system of a further data set is human MAO-A. On the set-up: method as in PMID 15095350. The settings on record: cited from earlier work.
In the next data set the target is MAO-A in rat brain. The settings on record: cited from earlier work.
The mark [9] stands for this setting: 15 µM test compound (clorgyline 1 µM, selegiline 0.5 µM), kynuramine 10 µM, 15 min.
The mark [10] stands for this setting: highest expected luminal concentration: curcumin 140, guaiacol 435, isoeugenol 110, pterostilbene 270, resveratrol 94, zingerone 51 µM, p < 0.05 vs control.
[11] abbreviates: kynuramine 10 µM, MAO-B 0.01 mg/mL, 15 min.

Where two headings read alike, the source gives them in different places.

With `N[C@@H]1C[C@H]1c1ccccc1` (racemic) [tranylcypromine], the “plateau inhibition, MAO-A” value on MAO-A [1] was found to be 48%.

On to `Oc1ccnc2ccccc12` [4-hydroxyquinoline], for which, in data set [2], the “estimated most acidic pKa” value is 4.3 and the “estimated most basic pKa” value is 11.1.

Consider `O=c1cc(-c2ccccc2)oc2cc(O)cc(O)c12` [chrysin], for which, on MAO-A [3], the “MAO-A inhibition (Figure 6)” value is given as “inhibited both enzymes”. Besides, the “MAO-B inhibition (Figure 6)” value on MAO-B [4] (setting [9]) is “inhibited both enzymes”.

In the case of `COc1cc(/C=C/C(=O)CC(=O)/C=C/c2ccc(O)c(OC)c2)ccc1O` [curcumin], at MAO-A [3], the “inhibition of MAO-A activity in screening” value (“inhibition of MAO-A activity” below) is on record as “significantly inhibited” and the “MAO-A Hill coefficient” value was determined as 2.0 ± 0.4. Moreover, the “inhibition of MAO-B activity in screening” value (“inhibition of MAO-B activity” below) against MAO-B [4] (setting [10]) is reported as “significantly inhibited”. In addition, the “MAO-B Hill coefficient” value on MAO-B [4] (setting [11]) is on record as 1.7 ± 0.1. Also, the “MAO-A inhibition in mouse brain” value with MAO-A in mouse brain is listed as “inhibits”. Besides, the “MAO-B inhibition in mouse brain” value in the data set with MAO-B in mouse brain is “inhibits”.

Turning to `Cc1cc(O)c2c(c1)C(=O)c1cc(O)cc(O)c1C2=O` [emodin], at MAO-B in rat brain, the Ki was 15.1 µM and the “mode of inhibition, MAO-B” value was “mixed mode”.

Regarding `COc1ccccc1O` [guaiacol], at MAO-A [3], the “inhibition of MAO-A activity” value is on record as “significantly inhibited”, the IC50 was 131 ± 6 µM and the “Selectivity Index” value is reported as 2.46. Besides, the “inhibition of MAO-B activity” value against MAO-B [4] (setting [10]) is listed as “significantly inhibited”. On MAO-B [4] (setting [11]), this molecule showed an IC50 of 322 ± 27 µM.

As to `O=c1c(O)c(-c2ccc(O)cc2)oc2cc(O)cc(O)c12` [kaempferol], the MAO-A inhibition entry with MAO-A [5] is “selective MAO-A inhibitor”.

In the case of `NCCC(=O)c1ccccc1N` [kynuramine], the Km in the data set with MAO-B [6] was 90 µM; in the data set on human MAO-B, 26 µM; with MAO-A [5], 44.1 µM; with human MAO-A, 42 µM. The “estimated most basic pKa” value in data set [2] is reported as 8.4. The “rate of 4-hydroxyquinoline formation, time-dependent study, MAO-B” value on MAO-B [7] (kynuramine 10 µM, MAO-B 0.01 mg/mL, 10-60 min) was 2.70 ± 0.07 nmol/mg/min. Also, on MAO-B [7] (kynuramine 10 µM, MAO-B 0.003-0.03 mg/mL, 15 min), the “rate of 4-hydroxyquinoline formation, MAO concentration-dependent study, MAO-B” value is listed as 3.66 ± 0.08 nmol/mg/min. In addition, the “Vmax, MAO-B” value at MAO-B [7] (kynuramine 2-500 μM, 15 min) was 7.35 ± 0.69 nmol/min/mg. Moreover, the “rate of 4-hydroxyquinoline formation, time-dependent study, MAO-A” value on MAO-A [8] (kynuramine 10 µM, MAO-A 0.01 mg/mL, 10-60 min) stood at 3.28 ± 0.09 nmol/mg/min. Also, the “rate of 4-hydroxyquinoline formation, MAO concentration-dependent study, MAO-A” value at MAO-A [8] (kynuramine 10 µM, MAO-A 0.003-0.03 mg/mL, 15 min) was found to be 3.06 ± 0.03 nmol/mg/min. Besides, the “Vmax, MAO-A” value on MAO-A [8] (kynuramine 2-500 μM, 15 min) turned out to be 10.2 ± 0.2 nmol/min/mg.

For `COc1ccc(C(C)=O)c(O)c1` [paeonol], on MAO-B in rat brain, the Ki is 38.2 µM and the “mode of inhibition, MAO-B” value was “competitive”. Also, at MAO-A in rat brain, the Ki was 51.1 µM and the “mode of inhibition, MAO-A” value is “non-competitive”.

Take `O=C(/C=C/C=C/c1ccc2c(c1)OCO2)N1CCCCC1` [piperine]: at MAO-B in rat brain, the Ki is 79.9 µM and the “mode of inhibition, MAO-B” value is given as “competitive”. Further, at MAO-A in rat brain, the Ki was 35.8 µM and the “mode of inhibition, MAO-A” value is “mixed”.

For `COc1cc(/C=C/c2ccc(O[C@@H]3O[C@H](CO)[C@@H](O)[C@H](O)[C@H]3O)cc2)cc(OC)c1` [pterostilbene 4'-glucoside], on MAO-B [4] (setting [9]), the “MAO-B inhibition (Figure 6)” value is “failed to inhibit”.

Take `O=c1c(O)c(-c2ccc(O)c(O)c2)oc2cc(O)cc(O)c12` [quercetin]: the MAO-B inhibition result with MAO-B [6] is “inhibitor”. Moreover, the MAO-A inhibition entry in the data set with MAO-A [5] is given as “inhibitor”.

On to `OC[C@H]1O[C@@H](Oc2cc(O)cc(/C=C/c3ccc(O)cc3)c2)[C@H](O)[C@@H](O)[C@@H]1O` [resveratrol 3-glucoside], for which the “MAO-B inhibition (Figure 6)” value at MAO-B [4] is listed as “failed to inhibit”.

As for `OC[C@H]1O[C@@H](Oc2ccc(/C=C/c3cc(O)cc(O)c3)cc2)[C@H](O)[C@@H](O)[C@@H]1O` [resveratrol 4'-glucoside], on MAO-A [3], the “MAO-A inhibition (Figure 6)” value is “inhibited MAO-A”. On MAO-B [4] (setting [9]), the “MAO-B inhibition (Figure 6)” value is given as “failed to inhibit”.

As to `COc1cc(CCC(C)=O)ccc1O` [zingerone], at MAO-A [3], the “inhibition of MAO-A activity” value is recorded as “only inhibited MAO-A” and it took 16.3 ± 1.1 µM to reach half-maximal inhibition (IC50). This molecule gave an inhibition at 51 µM against MAO-B [4] (51 µM (GI concentration expected from maximum single dose)) of less than 10%.

On to isoeugenol, for which, on MAO-A [3], the “inhibition of MAO-A activity” value is on record as “significantly inhibited”, the “MAO-A Hill coefficient” value is 1.2 ± 0.1 and the “Selectivity Index” value turned out to be 27.4. Also, at MAO-B [4], the “inhibition of MAO-B activity” value is listed as “significantly inhibited”. Further, the “MAO-B Hill coefficient” value on MAO-B [4] (setting [11]) came out at 2.4 ± 0.3.
